Peptide text beside a SMILES is read from it.
Experiments:
[1] = molecular target: T1, DPP-IV (Homo sapiens, UniProt P27487); assay: DPP-IV inhibitor screening kit (fluorescence); type: biochemical; conditions: mean ± SD, n = 3
T1 construct: purchased Elabscience Biotechnology Co., Ltd. E-BC-D007
Protocol: The hypoglycemic active peptides were synthesized via solid-phase synthesis by Shanghai science peptide Co., Ltd. (Shanghai, China). The purity and molecular weight of the synthesized peptides were confirmed using HPLC-MS. The α-glucosidase inhibitory activity was assessed a modified version of previously reported methods by adding 100 μL of p-NPG (1 mM) after 50 μL of peptide solution (0.125–2.0 mg/mL), and 50 μL of α-glucosidase (1 u/mL) were incubated at 37 °C for 15 min. Absorbance was measured at 405 nm after the reaction was stopped by adding 100 μL of […] after another 30 min of incubation. Similarly, α-amylase inhibitory activity was determined based on established protocols with minor modifications. Briefly, 100 μL of peptide solution (0.125–2.0 mg/mL) was mixed with 100 μL of α-amylase (1 U/mL) and incubated at 37 °C for 10 min. Then, 200 μL of pretreated soluble starch solution (2%, denatured at 95 °C for 8 min) was added, and the mixture was further incubated at 37 °C for 20 min. The reaction was stopped by adding 200 μL of DNS reagent (1% DNS; 12% sodium potassium tartrate in 0.4 M Na2CO3), followed by boiling at 100 °C for 15 min. After cooling, 200 μL of each reaction mixture was transferred to a 96-well plate, and absorbance was measured at 540 nm. DPP-IV inhibitory activity was evaluated using a DPP-IV inhibitor screening kit (Elabscience) following the manufacturer’s instructions with slight modifications. Peptide solutions were prepared at gradient concentrations (0.125, 0.25, 0.5, 1, 1.5, 2, 4, and 10 mg/mL). In a 96-well plate, 20 μL of enzyme solution and 30 μL of peptide sample were added to each well, mixed briefly, and incubated at 37 °C for 10 min. Then, 170 μL of reaction working solution was added, followed by a second incubation at 37 °C for 30 min. Fluorescence intensity was measured at an excitation wavelength of 360 nm and an emission wavelength of 460 nm. The IC50 values were determined by fitting dose–response curves using nonlinear regression analysis with a variable slope in GraphPad Prism 9. All IC50 results are expressed as mean ± SD based on three independent experiments.

[2] = test system: IR-HepG2 cells; assay: Intracellular glycogen content in IR-HepG2 cells; type: cell-based; conditions: GR-5, SA-6, VF-6 at 2 mmol/L, IR-7 at 1 mmol/L
Protocol: (§1) The IR-HepG2 cellular model was established as described in Section 3.6. […] Cell viability was evaluated in all groups to determine appropriate peptide concentrations and incubation times based on the criteria of non-cytotoxicity and maximal glucose consumption.
(§2) Glucose consumption was measured using a commercial glucose assay kit according to the manufacturer’s protocol. Intracellular glycogen content was quantified with a glycogen detection kit, while hexokinase (HK) and pyruvate kinase (PK) enzyme activities were determined using specific assay kits, following the provided instructions.

[3] = test system: pyruvate kinase (PK) in IR-HepG2 cells; assay: Pyruvate kinase activity in IR-HepG2 cells; type: cell-based; conditions: IR-HepG2, vs model control; GR-5, SA-6, VF-6 at 2 mmol/L, IR-7 at 1 mmol/L
Protocol: as §1, §2

[4] = test system: IR-HepG2 cells; assay: Glucose consumption in IR-HepG2 cells; type: cell-based; conditions: 2 mmol/L, IR-HepG2, compared to baseline, positive control
Protocol: HepG2 cells were maintained in Dulbecco’s Modified Eagle Medium (DMEM) supplemented with 10% fetal bovine serum and 1% penicillin–streptomycin under controlled conditions at 37 °C in a humidified atmosphere containing 5% CO2 for 24 h.
as §1, §2

[5] = test system: hexokinase (HK) in IR-HepG2 cells; assay: Hexokinase activity in IR-HepG2 cells; type: cell-based; conditions: IR-HepG2, vs model control; GR-5, SA-6, VF-6 at 2 mmol/L, IR-7 at 1 mmol/L
Protocol: as §1, §2

[6] = molecular target: T2, α-amylase (Sus scrofa, UniProt P00690); conditions: literature value; cited from earlier work
T2 sequence (P00690 16-511): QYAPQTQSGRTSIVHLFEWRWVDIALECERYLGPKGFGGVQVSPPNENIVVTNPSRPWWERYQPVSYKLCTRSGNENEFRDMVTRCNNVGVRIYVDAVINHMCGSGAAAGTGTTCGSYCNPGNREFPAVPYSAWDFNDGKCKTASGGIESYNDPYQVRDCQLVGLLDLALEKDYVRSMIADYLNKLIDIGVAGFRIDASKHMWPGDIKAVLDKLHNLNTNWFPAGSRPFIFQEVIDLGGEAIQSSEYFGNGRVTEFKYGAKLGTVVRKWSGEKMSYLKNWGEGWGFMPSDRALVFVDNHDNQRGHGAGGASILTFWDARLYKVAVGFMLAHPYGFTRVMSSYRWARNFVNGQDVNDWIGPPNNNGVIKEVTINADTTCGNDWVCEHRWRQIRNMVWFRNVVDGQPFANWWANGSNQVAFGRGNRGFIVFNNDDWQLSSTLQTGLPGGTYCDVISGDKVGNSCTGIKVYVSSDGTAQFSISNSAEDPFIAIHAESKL

T1 sequence (P27487 whole entry, species assumed): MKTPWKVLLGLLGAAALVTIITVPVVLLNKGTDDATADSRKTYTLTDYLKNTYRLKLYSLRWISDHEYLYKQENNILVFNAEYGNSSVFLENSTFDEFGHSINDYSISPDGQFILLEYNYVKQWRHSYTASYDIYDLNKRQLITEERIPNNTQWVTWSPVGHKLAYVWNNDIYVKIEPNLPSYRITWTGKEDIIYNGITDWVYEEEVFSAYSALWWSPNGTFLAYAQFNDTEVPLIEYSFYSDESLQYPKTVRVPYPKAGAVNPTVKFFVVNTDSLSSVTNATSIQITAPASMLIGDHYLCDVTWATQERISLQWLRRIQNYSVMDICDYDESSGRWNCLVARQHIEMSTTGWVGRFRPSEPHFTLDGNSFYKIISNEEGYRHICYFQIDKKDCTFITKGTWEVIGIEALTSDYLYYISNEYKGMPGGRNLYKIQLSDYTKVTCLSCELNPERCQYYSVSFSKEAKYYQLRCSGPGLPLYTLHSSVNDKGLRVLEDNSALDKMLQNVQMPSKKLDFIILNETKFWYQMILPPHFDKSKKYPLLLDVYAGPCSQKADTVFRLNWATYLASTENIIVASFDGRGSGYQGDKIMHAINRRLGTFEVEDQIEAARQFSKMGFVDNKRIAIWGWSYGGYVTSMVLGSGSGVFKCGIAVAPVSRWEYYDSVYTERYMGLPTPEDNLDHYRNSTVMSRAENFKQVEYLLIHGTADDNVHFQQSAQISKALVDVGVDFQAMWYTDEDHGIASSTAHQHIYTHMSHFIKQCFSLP

`CC(C)C[C@H](NC(=O)[C@H](Cc1ccc(O)cc1)NC(=O)[C@H](Cc1ccc(O)cc1)NC(=O)CN)C(=O)N[C@@H](CCCNC(=N)N)C(=O)O` [GR-5, Gly-Tyr-Tyr-Leu-Arg] (H-GYYLR-OH; N-terminus and C-terminus assumed) gave an IC50 [1] of 6.97 mM.
`CC[C@H](C)[C@H](N)C(=O)N[C@@H](C)C(=O)N[C@@H](CO)C(=O)N[C@@H](Cc1ccc(O)cc1)C(=O)N[C@@H](Cc1ccccc1)C(=O)N[C@@H](CC(=O)O)C(=O)N[C@@H](CCCNC(=N)N)C(=O)O` [IR-7, Ile-Ala-Ser-Tyr-Phe-Asp-Arg] (H-IASYFDR-OH; N-terminus and C-terminus assumed) gave an IC50 [1] of 1.04 mM.
In the case of `C[C@H](NC(=O)[C@H](CCCNC(=N)N)NC(=O)[C@H](CC(=O)O)NC(=O)[C@H](Cc1ccccc1)NC(=O)[C@H](Cc1ccc(O)cc1)NC(=O)[C@@H](N)CO)C(=O)O` [SA-6, Ser-Tyr-Phe-Asp-Arg-Ala] (H-SYFDRA-OH; N-terminus and C-terminus assumed), the IC50 [1] is reported as 11 mM.
Molecule `CC(C)[C@H](N)C(=O)N[C@@H](C)C(=O)N[C@@H](Cc1ccccc1)C(=O)NCC(=O)N[C@@H](CCCNC(=N)N)C(=O)N[C@@H](Cc1ccccc1)C(=O)O` [VF-6, Val-Ala-Phe-Gly-Arg-Phe] (H-VAFGRF-OH; N-terminus and C-terminus assumed) has an IC50 [1] of 1.36 mM.
For `CN(C)C(=N)N=C(N)N` [metformin], the “increase in glycogen content” value [2] was 24.2%, the “increase in PK activity” value [3] was 21.1% and the “increase in glucose consumption” value [4] was 105%. The “increase in HK activity” value [5] was 54.9%.
For FPSPPLVA, the “α-amylase IC50” value [6] is listed as 920 ± 270 µg/mL.
For GPPMPPPPLP, the “α-amylase IC50” value [6] is listed as 2020 ± 200 µg/mL.
